Measurements from PubChem BioAssay (NCI).
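Tested at 5 concentrations; 48 h exposure; 96-well plates; endpoints linearly interpolated, else capped at highest concentration. GI50 marks 50% less growth. TGI: concentration producing complete growth inhibition.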

What was measured:
Experiment in all cases: NCI-60 cell line screen, 48 h
TK-10 renal = system: TK-10 renal
SNB-75 CNS = system: SNB-75 CNS
SF-539 CNS = system: SF-539 CNS
U251 CNS = system: U251 CNS
COLO 205 colon = system: COLO 205 colon
HL-60(TB) leukemia = system: HL-60(TB) leukemia
NCI-H460 lung = system: NCI-H460 lung
SR leukemia = system: SR leukemia
HS 578T breast = system: HS 578T breast
EKVX NSCLC = system: EKVX NSCLC
OVCAR-8 ovarian = system: OVCAR-8 ovarian
SK-MEL-5 melanoma = system: SK-MEL-5 melanoma
UO-31 renal = system: UO-31 renal
HCC-2998 colon = system: HCC-2998 colon
M14 melanoma = system: M14 melanoma
SNB-19 CNS = system: SNB-19 CNS
RPMI-8226 leukemia = system: RPMI-8226 leukemia
CAKI-1 renal = system: CAKI-1 renal
MDA-MB-231 breast = system: MDA-MB-231 breast
T-47D breast = system: T-47D breast
SK-MEL-28 melanoma = system: SK-MEL-28 melanoma
A498 renal = system: A498 renal
RXF 393 renal = system: RXF 393 renal
NCI/ADR-RES ovarian = system: NCI/ADR-RES ovarian
LOX IMVI melanoma = system: LOX IMVI melanoma
SK-MEL-2 melanoma = system: SK-MEL-2 melanoma
HT29 colon = system: HT29 colon
HOP-62 NSCLC = system: HOP-62 NSCLC
786-0 renal = system: 786-0 renal
HCT-116 colon = system: HCT-116 colon
K-562 leukemia = system: K-562 leukemia
SW-620 colon = system: SW-620 colon
PC-3 prostate = system: PC-3 prostate
MALME-3M melanoma = system: MALME-3M melanoma
KM12 colon = system: KM12 colon
SK-OV-3 ovarian = system: SK-OV-3 ovarian
MOLT-4 leukemia = system: MOLT-4 leukemia
IGROV1 ovarian = system: IGROV1 ovarian
NCI-H522 lung = system: NCI-H522 lung
NCI-H23 lung = system: NCI-H23 lung
NCI-H226 lung = system: NCI-H226 lung
OVCAR-5 ovarian = system: OVCAR-5 ovarian
SN12C renal = system: SN12C renal
CCRF-CEM leukemia = system: CCRF-CEM leukemia
OVCAR-3 ovarian = system: OVCAR-3 ovarian
HCT-15 colon = system: HCT-15 colon
BT-549 breast = system: BT-549 breast
SF-268 CNS = system: SF-268 CNS
UACC-257 melanoma = system: UACC-257 melanoma
ACHN renal = system: ACHN renal
UACC-62 melanoma = system: UACC-62 melanoma
DU-145 prostate = system: DU-145 prostate
MDA-MB-435 = system: MDA-MB-435
MCF7 breast = system: MCF7 breast
HOP-92 NSCLC = system: HOP-92 NSCLC
SF-295 CNS = system: SF-295 CNS
A549 NSCLC = system: A549 NSCLC
OVCAR-4 ovarian = system: OVCAR-4 ovarian

Question: For `O=C1CCC(N2C(=O)c3cccc(NCCCC4CCN(CCNC(=O)c5cc6c(o5)C(=O)c5ccccc5C6=O)CC4)c3C2=O)C(=O)N1` (stereo unspecified), which GI50 (TK-10 renal) is on record?
Answer: 2250 nM

Question: What about the TGI (TK-10 renal) of the same compound?
Answer: 4400 nM

Question: And the GI50 (SNB-75 CNS)?
Answer: 1530 nM

Question: What about the TGI (SNB-75 CNS) of the same compound?
Answer: 2880 nM

Question: What about the GI50 (SF-539 CNS) of the same compound?
Answer: 1320 nM

Question: And the TGI (SF-539 CNS)?
Answer: 2590 nM

Question: And the GI50 (U251 CNS)?
Answer: 1140 nM

Question: What about the TGI (U251 CNS) of the same compound?
Answer: 2450 nM

Question: What about the GI50 (COLO 205 colon) of the same compound?
Answer: 266 nM

Question: What about the TGI (COLO 205 colon) of the same compound?
Answer: 808 nM

Question: And the GI50 (HL-60(TB) leukemia)?
Answer: 858 nM

Question: What about the TGI (HL-60(TB) leukemia) of the same compound?
Answer: 6160 nM

Question: What about the GI50 (NCI-H460 lung) of the same compound?
Answer: 249 nM

Question: What about the TGI (NCI-H460 lung) of the same compound?
Answer: 609 nM

Question: What about the GI50 (SR leukemia) of the same compound?
Answer: 106 nM

Question: And the TGI (SR leukemia)?
Answer: > 30100 nM

Question: What about the GI50 (HS 578T breast) of the same compound?
Answer: 1950 nM

Question: What about the TGI (HS 578T breast) of the same compound?
Answer: 6900 nM

Question: And the GI50 (EKVX NSCLC)?
Answer: 1500 nM

Question: And the TGI (EKVX NSCLC)?
Answer: 3340 nM

Question: What about the GI50 (OVCAR-8 ovarian) of the same compound?
Answer: 1410 nM

Question: What about the TGI (OVCAR-8 ovarian) of the same compound?
Answer: 7180 nM

Question: And the GI50 (SK-MEL-5 melanoma)?
Answer: 163 nM

Question: And the TGI (SK-MEL-5 melanoma)?
Answer: 303 nM

Question: What about the GI50 (UO-31 renal) of the same compound?
Answer: 1370 nM

Question: What about the TGI (UO-31 renal) of the same compound?
Answer: 2910 nM

Question: And the GI50 (HCC-2998 colon)?
Answer: 695 nM

Question: What about the TGI (HCC-2998 colon) of the same compound?
Answer: 1810 nM

Question: And the GI50 (M14 melanoma)?
Answer: 161 nM

Question: And the TGI (M14 melanoma)?
Answer: 309 nM

Question: What about the GI50 (SNB-19 CNS) of the same compound?
Answer: 673 nM

Question: And the TGI (SNB-19 CNS)?
Answer: 1970 nM

Question: What about the GI50 (RPMI-8226 leukemia) of the same compound?
Answer: 1700 nM

Question: What about the TGI (RPMI-8226 leukemia) of the same compound?
Answer: 20900 nM

Question: What about the GI50 (CAKI-1 renal) of the same compound?
Answer: 2170 nM

Question: And the TGI (CAKI-1 renal)?
Answer: 9130 nM

Question: And the GI50 (MDA-MB-231 breast)?
Answer: 670 nM

Question: And the TGI (MDA-MB-231 breast)?
Answer: 6830 nM

Question: And the GI50 (T-47D breast)?
Answer: 1820 nM

Question: And the TGI (T-47D breast)?
Answer: 11000 nM

Question: What about the GI50 (SK-MEL-28 melanoma) of the same compound?
Answer: 1880 nM

Question: What about the TGI (SK-MEL-28 melanoma) of the same compound?
Answer: 4570 nM

Question: What about the GI50 (A498 renal) of the same compound?
Answer: 1410 nM

Question: And the TGI (A498 renal)?
Answer: 2750 nM

Question: What about the GI50 (RXF 393 renal) of the same compound?
Answer: 1030 nM

Question: What about the TGI (RXF 393 renal) of the same compound?
Answer: 3080 nM

Question: And the GI50 (NCI/ADR-RES ovarian)?
Answer: 2890 nM

Question: And the TGI (NCI/ADR-RES ovarian)?
Answer: 14700 nM

Question: What about the GI50 (LOX IMVI melanoma) of the same compound?
Answer: 288 nM

Question: And the TGI (LOX IMVI melanoma)?
Answer: 1130 nM

Question: What about the GI50 (SK-MEL-2 melanoma) of the same compound?
Answer: 1270 nM

Question: And the TGI (SK-MEL-2 melanoma)?
Answer: 3600 nM

Question: What about the GI50 (HT29 colon) of the same compound?
Answer: 823 nM

Question: And the TGI (HT29 colon)?
Answer: 8810 nM

Question: And the GI50 (HOP-62 NSCLC)?
Answer: 1440 nM

Question: What about the TGI (HOP-62 NSCLC) of the same compound?
Answer: 2860 nM

Question: And the GI50 (786-0 renal)?
Answer: 1440 nM

Question: What about the TGI (786-0 renal) of the same compound?
Answer: 3170 nM

Question: And the GI50 (HCT-116 colon)?
Answer: 465 nM

Question: And the TGI (HCT-116 colon)?
Answer: 2380 nM

Question: What about the GI50 (K-562 leukemia) of the same compound?
Answer: 654 nM

Question: What about the TGI (K-562 leukemia) of the same compound?
Answer: 6300 nM

Question: And the GI50 (SW-620 colon)?
Answer: 450 nM

Question: And the TGI (SW-620 colon)?
Answer: 1860 nM

Question: And the GI50 (PC-3 prostate)?
Answer: 976 nM

Question: What about the TGI (PC-3 prostate) of the same compound?
Answer: > 76400 nM

Question: And the GI50 (MALME-3M melanoma)?
Answer: 140 nM

Question: And the TGI (MALME-3M melanoma)?
Answer: 284 nM

Question: What about the GI50 (KM12 colon) of the same compound?
Answer: 1290 nM

Question: And the TGI (KM12 colon)?
Answer: 3970 nM

Question: What about the GI50 (SK-OV-3 ovarian) of the same compound?
Answer: 2880 nM

Question: What about the TGI (SK-OV-3 ovarian) of the same compound?
Answer: 8520 nM

Question: And the GI50 (MOLT-4 leukemia)?
Answer: 1930 nM

Question: And the TGI (MOLT-4 leukemia)?
Answer: 13800 nM

Question: What about the GI50 (IGROV1 ovarian) of the same compound?
Answer: 576 nM

Question: And the TGI (IGROV1 ovarian)?
Answer: 2300 nM

Question: What about the GI50 (NCI-H522 lung) of the same compound?
Answer: 1500 nM

Question: What about the TGI (NCI-H522 lung) of the same compound?
Answer: 3270 nM

Question: And the GI50 (NCI-H23 lung)?
Answer: 159 nM

Question: What about the TGI (NCI-H23 lung) of the same compound?
Answer: 399 nM

Question: And the GI50 (NCI-H226 lung)?
Answer: 1420 nM

Question: What about the TGI (NCI-H226 lung) of the same compound?
Answer: 3760 nM

Question: What about the GI50 (OVCAR-5 ovarian) of the same compound?
Answer: 653 nM

Question: And the TGI (OVCAR-5 ovarian)?
Answer: 2000 nM

Question: What about the GI50 (SN12C renal) of the same compound?
Answer: 252 nM

Question: And the TGI (SN12C renal)?
Answer: 806 nM

Question: And the GI50 (CCRF-CEM leukemia)?
Answer: 2270 nM

Question: What about the TGI (CCRF-CEM leukemia) of the same compound?
Answer: > 71600 nM

Question: And the GI50 (OVCAR-3 ovarian)?
Answer: 218 nM

Question: And the TGI (OVCAR-3 ovarian)?
Answer: 761 nM

Question: What about the GI50 (HCT-15 colon) of the same compound?
Answer: 825 nM

Question: What about the TGI (HCT-15 colon) of the same compound?
Answer: 2410 nM

Question: What about the GI50 (BT-549 breast) of the same compound?
Answer: 636 nM

Question: And the TGI (BT-549 breast)?
Answer: 2150 nM

Question: What about the GI50 (SF-268 CNS) of the same compound?
Answer: 2060 nM

Question: What about the TGI (SF-268 CNS) of the same compound?
Answer: 7650 nM

Question: What about the GI50 (UACC-257 melanoma) of the same compound?
Answer: 632 nM

Question: What about the TGI (UACC-257 melanoma) of the same compound?
Answer: 1870 nM

Question: What about the GI50 (ACHN renal) of the same compound?
Answer: 1290 nM

Question: And the TGI (ACHN renal)?
Answer: 2560 nM

Question: What about the GI50 (UACC-62 melanoma) of the same compound?
Answer: 304 nM

Question: What about the TGI (UACC-62 melanoma) of the same compound?
Answer: 980 nM

Question: And the GI50 (DU-145 prostate)?
Answer: 185 nM

Question: What about the TGI (DU-145 prostate) of the same compound?
Answer: 344 nM

Question: What about the GI50 (MDA-MB-435) of the same compound?
Answer: 182 nM

Question: And the TGI (MDA-MB-435)?
Answer: 335 nM

Question: What about the GI50 (MCF7 breast) of the same compound?
Answer: 10.2 nM

Question: And the TGI (MCF7 breast)?
Answer: 215 nM

Question: And the GI50 (HOP-92 NSCLC)?
Answer: 3510 nM

Question: And the TGI (HOP-92 NSCLC)?
Answer: 15100 nM

Question: And the GI50 (SF-295 CNS)?
Answer: 252 nM

Question: And the TGI (SF-295 CNS)?
Answer: 711 nM

Question: What about the GI50 (A549 NSCLC) of the same compound?
Answer: 189 nM

Question: And the TGI (A549 NSCLC)?
Answer: 471 nM

Question: What about the GI50 (OVCAR-4 ovarian) of the same compound?
Answer: 747 nM

Question: And the TGI (OVCAR-4 ovarian)?
Answer: 2080 nM
